Experimental data reported in ChEMBL document CHEMBL1125008 (J Med Chem, 1990).

Assays:
[1] = target: T1, Serotonin 3 receptor (5HT3) (Mus musculus) (UniProt Q9JHJ5+P23979); test: (§1) The binding affinity was measured for 5-hydroxytryptamine 3 receptor on NG 108-15 cell line of mouse neuroblastoma-glioma cells in presence of [3H]5 radioligand (in vitro); assay type: cell-based; details: concentration not given here
[2] = target: T2, Serotonin 3 receptor (5HT3) (Mus musculus, UniProt Q9JHJ5+P23979); test: as §1; assay type: cell-based
T2 sequence (Q9JHJ5 whole entry): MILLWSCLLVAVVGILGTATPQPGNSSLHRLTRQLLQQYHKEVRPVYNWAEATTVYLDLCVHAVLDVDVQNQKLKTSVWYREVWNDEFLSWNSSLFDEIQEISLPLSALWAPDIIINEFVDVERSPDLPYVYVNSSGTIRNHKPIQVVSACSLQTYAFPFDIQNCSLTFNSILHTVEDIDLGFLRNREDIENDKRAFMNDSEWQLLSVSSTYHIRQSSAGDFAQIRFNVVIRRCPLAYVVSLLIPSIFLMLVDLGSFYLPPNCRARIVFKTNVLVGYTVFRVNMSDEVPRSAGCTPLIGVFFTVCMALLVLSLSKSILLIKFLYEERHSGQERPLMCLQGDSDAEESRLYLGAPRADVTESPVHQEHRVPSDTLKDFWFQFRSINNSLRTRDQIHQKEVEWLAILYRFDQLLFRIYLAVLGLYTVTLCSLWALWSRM
T2 sequence (P23979 whole entry): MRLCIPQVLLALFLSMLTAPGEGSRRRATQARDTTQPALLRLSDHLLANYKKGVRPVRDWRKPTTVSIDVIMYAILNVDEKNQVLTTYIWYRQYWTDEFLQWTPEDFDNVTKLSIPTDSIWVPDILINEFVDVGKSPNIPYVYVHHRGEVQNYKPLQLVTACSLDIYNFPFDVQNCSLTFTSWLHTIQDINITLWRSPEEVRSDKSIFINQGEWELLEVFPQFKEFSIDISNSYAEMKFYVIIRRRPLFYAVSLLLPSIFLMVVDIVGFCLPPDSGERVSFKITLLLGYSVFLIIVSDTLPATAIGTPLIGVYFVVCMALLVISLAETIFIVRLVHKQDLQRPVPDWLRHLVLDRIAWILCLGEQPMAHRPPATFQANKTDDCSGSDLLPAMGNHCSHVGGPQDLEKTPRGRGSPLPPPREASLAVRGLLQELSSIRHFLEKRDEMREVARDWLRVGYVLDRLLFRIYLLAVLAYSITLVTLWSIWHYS

[3] = target: T1, Serotonin 3 receptor (5HT3) (Mus musculus); test: Percent inhibition of [3H]5 binding to 5-hydroxytryptamine 3 receptor was evaluated by injection of compound (75 microCi/kg, […]) into the tail vein of mice (in vivo); assay type: organism-based

SMILES	inhibition [1]	Ki [2]	other results
Cc1[nH]cnc1Cc1nc(-c2ccccc2F)cs1	66%		
Cc1[nH]cnc1Cc1nc(-c2ccccc2)cs1	53%		
COc1ccccc1-c1csc(Cc2[nH]cnc2C)n1	50%		
Cc1[nH]c2ccc(O)cc2c1CCN		1430 nM	
c1ccc2nc(N3CCNCC3)ccc2c1 [QUIPAZINE]		8.67 nM	
Cc1nccn1CC1CCc2c(c3ccccc3n2C)C1=O (stereo not drawn) [ONDANSETRON]		12 nM	
CN1[C@@H]2CC[C@H]1C[C@@H](OC(=O)c1c[nH]c3ccccc13)C2 [TROPISETRON]		3.8 nM	
Cc1[nH]cnc1Cc1nc(-c2cccc3cccnc23)cs1			inhibition [3]: 54%
